Experimental data taken from patent publication US20110015119A1, “NOVEL SEMI-SYNTHETIC GLYCOPEPTIDES AS ANTIBACTERIAL AGENTS” (LEAD THERAPEUTICS, INC., priority 2009, published 2011).
In brackets after ≈: the same amount, converted by molar mass. Read-outs that look alike come from different tables or passages of the source.

Columns and labels:
Type in all cases: cell-based
[1] = test system: Staphylococcus aureus 100 (ATCC 29213); assay: MIC by broth microdilution, SA 100
Procedure: (§1) Antibacterial activity in vitro is investigated by broth microdilution method in Meuller-Hinton broth as recommended by NCCLS. All strains tested are clinical isolates either sensitive or resistant to natural glycopeptides. MIC values were determined using the CLSI-recommended broth microdilution procedure (Clinical and Laboratory Standards Institute, Methods for Dilution Antimicrobial Susceptibility Tests for Bacteria That Grow Aerobically; Approved Standard-Seventh Edition.). Automated liquid handlers (Multidrop 384, Labsystems, Helsinki, Finland; Biomek 2000 and Multimek 96, Beckman Coulter, Fullerton Calif.) were used to conduct serial dilutions and liquid transfers. The MIC value for vancomycin is given for comparison. The abbreviations for organisms tested are as follow: SA 100—Staphylococcus aureus 100 (ATCC 29213); SA 757—Staphylococcus aureus 757 (MRSA); SA 2012—Staphylococcus aureus 2012 (VISA); SE 835—Staphylococcus epidermidis 835; SE 831—Staphylococcus epidermidis 831 (MRSE); EFc 101—Enterococcus faecalis 101 (ATCC 29212); EFc 848—Enterococcus faecalis 848 (VRE, Van A); EFcm 800—Enterococcus faecium 800; EFcm 752—Enterococcus faecium 752 (VRE, Van A); SPNE 1195—Streptococcus pneumoniae 1195 (ATCC 49619); SPY 712—Streptococcus pyogenes 712.

[2] = test system: Staphylococcus epidermidis 835; assay: MIC by broth microdilution, SE 835
Procedure: as §1

[3] = test system: Streptococcus pneumoniae 1195 (ATCC 49619); assay: MIC by broth microdilution, SPNE 1195
Procedure: as §1

[4] = test system: Enterococcus faecium 752 (VRE, Van A); assay: MIC by broth microdilution, EFcm 752; conditions: class symbols
Procedure: as §1

Enterococcus faecium 800 = assay: MIC by broth microdilution, EFcm 800
Procedure: as §1

[5] = test system: Staphylococcus aureus 2012 (VISA); assay: MIC by broth microdilution, SA 2012; conditions: class symbols
Procedure: as §1

[6] = test system: Streptococcus pyogenes 712; assay: MIC by broth microdilution, SPY 712
Procedure: as §1

[7] = test system: Staphylococcus epidermidis 831 (MRSE); assay: MIC by broth microdilution, SE 831; conditions: read-out: MIC SE 831
Procedure: as §1

[8] = test system: Enterococcus faecalis 848 (VRE, Van A); assay: MIC by broth microdilution, EFc 848; conditions: class symbols
Procedure: as §1

[9] = test system: Enterococcus faecalis 101 (ATCC 29212); assay: MIC by broth microdilution, EFc 101; conditions: class symbols
Procedure: as §1

[10] = test system: Staphylococcus aureus 757 (MRSA); assay: MIC by broth microdilution, SA 757; conditions: read-out: MIC SA 757
Procedure: as §1

[11] = ATCC29213, Staphylococcus aureus 100 (ATCC 29213), class symbols, read-out: MIC SA 100
[12] = Staphylococcus epidermidis 835, class symbols, read-out: MIC SE 835
[13] = ATCC49619, Streptococcus pneumoniae 1195 (ATCC 49619), class symbols, read-out: MIC S PNE 1195
[14] = Enterococcus faecium 752 (VRE, Van A), read-out: MIC E FCM 752
[15] = Enterococcus faecium 800, class symbols, read-out: MIC E FCM 800
[16] = Staphylococcus aureus 2012 (VISA), read-out: MIC SA 2012
[17] = Streptococcus pyogenes 712, class symbols, read-out: MIC S PYO 712
[18] = Staphylococcus epidermidis 831 (MRSE), class symbols
[19] = Enterococcus faecalis 848 (VRE, Van A), read-out: MIC E FC 848
[20] = ATCC29212, Enterococcus faecalis 101 (ATCC 29212), read-out: MIC E FC 101
[21] = Staphylococcus aureus 757 (MRSA), class symbols

CCCCCCc1ccc(S(=O)(=O)NCCCCCCNCc2c(O)cc3c(c2O)-c2cc(ccc2O)[C@H]2NC(=O)[C@@H]4NC(=O)[C@H](CC(N)=O)NC(=O)[C@H](NC(=O)[C@@H](CC(C)C)NC)[C@H](O)c5ccc(c(Cl)c5)Oc5cc4cc(c5O[C@@H]4O[C@H](CO)[C@@H](O)[C@H](O)[C@H]4O[C@H]4C[C@](C)(NC(C)=O)[C@H](O)[C@H](C)O4)Oc4ccc(cc4Cl)[C@@H](O)[C@H](NC2=O)C(=O)N[C@@H]3C(=O)O)cc1 (atropisomer, axis not shown) [Compound 363]
MIC [1, 11]: 0.01 to 0.5 µg/mL (≈ 0.00542 to 0.271 µM)
MIC [2, 12]: 0.01 to 0.5 µg/mL (≈ 0.00542 to 0.271 µM)
MIC [3, 13]: 0.01 to 0.5 µg/mL (≈ 0.00542 to 0.271 µM)
MIC [4, 14]: 2 to 4 µg/mL (≈ 1.08 to 2.17 µM)
MIC (Enterococcus faecium 800; [15]): 0.01 to 0.5 µg/mL (≈ 0.00542 to 0.271 µM)
MIC [5, 16]: 0.01 to 0.5 µg/mL (≈ 0.00542 to 0.271 µM)
MIC [6, 17]: 0.01 to 0.5 µg/mL (≈ 0.00542 to 0.271 µM)
MIC [7, 18]: 0.01 to 0.5 µg/mL (≈ 0.00542 to 0.271 µM)
MIC [8, 19]: 8 to 16 µg/mL (≈ 4.34 to 8.68 µM)
MIC [9, 20]: 0.01 to 0.5 µg/mL (≈ 0.00542 to 0.271 µM)
MIC [10, 21]: 0.01 to 0.5 µg/mL (≈ 0.00542 to 0.271 µM)

CCCCCOCCNC(=O)Oc1cc(O)c2c(c1)[C@@H](C(=O)O)NC(=O)[C@H]1NC(=O)[C@H](NC(=O)[C@@H]3NC(=O)[C@H](CC(N)=O)NC(=O)[C@H](NC(=O)[C@@H](CC(C)C)NC)[C@H](O)c4ccc(c(Cl)c4)Oc4cc3cc(c4O[C@@H]3O[C@H](CO)[C@@H](O)[C@H](O)[C@H]3O[C@H]3C[C@](C)(N)[C@H](O)[C@H](C)O3)Oc3ccc(cc3Cl)[C@H]1O)c1ccc(O)c-2c1 (atropisomer, axis not shown) [Compound 348]
MIC ([1]; Staphylococcus aureus, ATCC29213, read-out: MIC SA 100): 2 to 4 µg/mL (≈ 1.24 to 2.49 µM)
MIC ([2]; Staphylococcus epidermidis, 835, read-out: MIC SE 835): 4 to 8 µg/mL (≈ 2.49 to 4.98 µM)
MIC ([3]; Streptococcus pneumoniae, ATCC49619, read-out: MIC S PNE 1195): 0.01 to 0.5 µg/mL (≈ 0.00622 to 0.311 µM)
MIC ([4]; Enterococcus faecium, VRE, read-out: MIC E FCM 752, Enterococcus faecium 752 (VRE, Van A)): > 16 µg/mL
MIC (Enterococcus faecium 800; Enterococcus faecium, 800, read-out: MIC E FCM 800): 1 to 2 µg/mL (≈ 0.622 to 1.24 µM)
MIC ([5]; Staphylococcus aureus, VISA, read-out: MIC SA 2012, Staphylococcus aureus 2012 (VISA)): 8 to 16 µg/mL (≈ 4.98 to 9.96 µM)
MIC ([6]; Streptococcus pyogenes, 712, read-out: MIC S PYO 712): 0.5 to 1 µg/mL (≈ 0.311 to 0.622 µM)
MIC ([7]; Staphylococcus epidermidis, MRSE): 4 to 8 µg/mL (≈ 2.49 to 4.98 µM)
MIC ([8]; Enterococcus faecalis, VRE, read-out: MIC E FC 848, Enterococcus faecalis 848 (VRE, Van A)): > 16 µg/mL
MIC ([9]; Enterococcus faecalis, ATCC29212, read-out: MIC E FC 101, Enterococcus faecalis 101 (ATCC 29212)): 2 to 4 µg/mL (≈ 1.24 to 2.49 µM)
MIC ([10]; Staphylococcus aureus, MRSA): 2 to 4 µg/mL (≈ 1.24 to 2.49 µM)

CCCCCOc1ccc(S(=O)(=O)NCCCCNCc2c(O)cc3c(c2O)-c2cc(ccc2O)[C@H]2NC(=O)[C@@H]4NC(=O)[C@H](CC(N)=O)NC(=O)[C@H](NC(=O)[C@@H](CC(C)C)NC)[C@H](O)c5ccc(c(Cl)c5)Oc5cc4cc(c5O[C@@H]4O[C@H](CO)[C@@H](O)[C@H](O)[C@H]4O[C@H]4C[C@](C)(NC(=O)CN)[C@H](O)[C@H](C)O4)Oc4ccc(cc4Cl)[C@@H](O)[C@H](NC2=O)C(=O)N[C@@H]3C(=O)O)cc1 (atropisomer, axis not shown) [Compound 346]
MIC [1, 11]: 0.01 to 0.5 µg/mL (≈ 0.00546 to 0.273 µM)
MIC [2, 12]: 0.01 to 0.5 µg/mL (≈ 0.00546 to 0.273 µM)
MIC [3, 13]: 0.01 to 0.5 µg/mL (≈ 0.00546 to 0.273 µM)
MIC [4, 14]: 8 to 16 µg/mL (≈ 4.36 to 8.73 µM)
MIC (Enterococcus faecium 800; [15]): 0.01 to 0.5 µg/mL (≈ 0.00546 to 0.273 µM)
MIC [5, 16]: 0.5 to 1 µg/mL (≈ 0.273 to 0.546 µM)
MIC [6, 17]: 0.01 to 0.5 µg/mL (≈ 0.00546 to 0.273 µM)
MIC [7, 18]: 0.01 to 0.5 µg/mL (≈ 0.00546 to 0.273 µM)
MIC [8, 19]: > 16 µg/mL
MIC [9, 20]: 0.5 to 1 µg/mL (≈ 0.273 to 0.546 µM)
MIC [10, 21]: 0.01 to 0.5 µg/mL (≈ 0.00546 to 0.273 µM)

CCCCCOc1ccc(S(=O)(=O)NCCCCCCNCc2c(O)cc3c(c2O)-c2cc(ccc2O)[C@H]2NC(=O)[C@@H]4NC(=O)[C@H](CC(N)=O)NC(=O)[C@H](NC(=O)[C@@H](CC(C)C)NC)[C@H](O)c5ccc(c(Cl)c5)Oc5cc4cc(c5O[C@@H]4O[C@H](CO)[C@@H](O)[C@H](O)[C@H]4O[C@H]4C[C@](C)(NC(=O)CN)[C@H](O)[C@H](C)O4)Oc4ccc(cc4Cl)[C@@H](O)[C@H](NC2=O)C(=O)N[C@@H]3C(=O)O)cc1 (atropisomer, axis not shown) [Compound 345]
MIC [1, 11]: 0.01 to 0.5 µg/mL (≈ 0.00537 to 0.269 µM)
MIC [2, 12]: 0.01 to 0.5 µg/mL (≈ 0.00537 to 0.269 µM)
MIC [3, 13]: 0.01 to 0.5 µg/mL (≈ 0.00537 to 0.269 µM)
MIC [4, 14]: 8 to 16 µg/mL (≈ 4.3 to 8.6 µM)
MIC (Enterococcus faecium 800; [15]): 0.01 to 0.5 µg/mL (≈ 0.00537 to 0.269 µM)
MIC [5, 16]: 0.01 to 0.5 µg/mL (≈ 0.00537 to 0.269 µM)
MIC [6, 17]: 0.01 to 0.5 µg/mL (≈ 0.00537 to 0.269 µM)
MIC [7, 18]: 0.01 to 0.5 µg/mL (≈ 0.00537 to 0.269 µM)
MIC [8, 19]: > 16 µg/mL
MIC [9, 20]: 0.01 to 0.5 µg/mL (≈ 0.00537 to 0.269 µM)
MIC [10, 21]: 0.01 to 0.5 µg/mL (≈ 0.00537 to 0.269 µM)
